Source: patent US20230227466A1, “SUBSTITUTED THIENOPYRIMIDINES THAT INTERACT WITH THE RAS SUPERFAMILY FOR THE TREATMENT OF CANCERS, INFLAMMATORY DISEASES, RASOPATHIES, AND FIBROTIC DISEASE” (SHY Therapeutics, LLC, priority 2020, published 2023)

Columns and labels:
Kinetic solubility assay = type: physicochemical; conditions: phosphate-buffered saline pH 7.4 with 2% DMSO, aqueous buffer, kinetic from dmso stock; pH 7.4 PBS + 2% DMSO, 25° C., two hours; effective range approximately 2-400 μM
Method: Equipment: Water purification system Millipore Milli-Q Gradient A10 (Millipore, France); Thermomixer R Block, 1.5 ml (Eppendorf, Germany; Cat #5355); Matrix Multichannel Electronic Pipette 2-125 μL, 5-250 μL, 15-1250 μL (Thermo Scientific, USA; Cat ##2011, 2012, 2004); SpectraMax Plus Microplate Reader (Molecular Devices, USA; Product #02196); Multi-Well Plate Vacuum Manifold (Pall Corporation, USA; Product #5014); and Vacuum pump (Millipore, USA; Model #XX5500000)
Analytical System: The measurements were performed using SpectraMax Plus reader in UV-Vis mode. Acquisition and analysis of the data were performed using SoftMax Pro v.5.4 (Molecular Devices) and Excel 2010 data analysis software.
Methods: Briefly, using a 20 mM stock solution of the compound in 100% DMSO dilutions were prepared to a theoretical concentration of 400 μM in duplicates in phosphate-buffered saline pH 7.4 (138 mM NaCl, 2.7 mM KCl, 10 mM K-phosphate) with 2% final DMSO. The experimental compound dilutions in PBS were further allowed to equilibrate at 25° C. on a thermostatic shaker for two hours and then filtered through HTS filter plates using a vacuum manifold. The filtrates of test compounds were diluted 2-fold with acetonitrile with 2% DMSO before measuring.
In parallel, compound dilutions in acetonitrile/PBS (1:1) were prepared to theoretical concentrations of 0 μM (blank), 10 μM, 25 μM, 50 μM, 100 μM, and 200 μM with 2% final DMSO to generate calibration curves. Ondansetron was used as reference compound to control proper assay performance. 200 μL of each sample was transferred to 96-well plate and measured in 200-550 nm range with 5 nm step.
The concentrations of compounds in PBS filtrate are calculated using a dedicated Microsoft Excel calculation script. Proper absorbance wavelengths for calculations are selected for each compound manually based on absorbance maximums (absolute absorbance unit values for the minimum and maximum concentration points within 0-3 OD range). Each of the final datasets is additionally visually evaluated by the operator and goodness of fit (R2) is calculated for each calibration curve. […] This method is not suitable for liquid (at 25° C.) substances (were not present among the tested compounds). Table 3A provides the kinetic solubility for some of the exemplified compounds.

[1] = tested on: Akt phosphorylation in Panc-1 cells; assay: Western AKT cell-based phosphorylation assay; design: species or system human; conditions: at 10 μM, values in brackets < > are activation %, not inhibition
Outline: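 Phospho-Akt (Ser473) western blot of Panc-1 lysates, with Ponceau S to confirm uniform loading. Before lysis, cells were serum-starved overnight (0.5% FBS), incubated 6 h at 37° C with 10 μM compound in 0.3% DMSO and stimulated 15 min with 1.5 ng/ml EGF.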

[2] = tested on: ERK1/2 phosphorylation in Panc-1 cells; assay: Western ERK1/2 cell-based phosphorylation assay; design: species or system human; conditions: at 10 μM, values in brackets < > are activation %, not inhibition
Outline: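 Western blot with anti-phospho-p44/42 (Thr202/Tyr204) measured ERK1/2 phosphorylation after 15 min EGF (1.5 ng/ml) stimulation. Beforehand, serum-starved (0.5% FBS, overnight) Panc-1 cells received compounds for 6 h at 37 °C, at 10 μM final in 0.3% DMSO or as dilution series for IC50.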

SMILES | solubility kinetic at 2 h (Kinetic solubility assay) [µM] | % inh of AKT phosphorylation in PANC-1 [1] | % inh of ERK1/2 phosphorylation in PANC-1 [2]
CO[C@H]1CC[C@@H](Nc2nc(-c3ccccn3)nc3sc(-c4ccn(C(C)C)n4)c(C)c23)C1 (racemic) [Compound 69, Rac-6-(1-isopropyl-1H-pyrazol-3-yl)-N-((1R,3S)-3-methoxycyclopentyl)-5-methyl-2-(pyridine-2-yl)thieno[2,3-d]pyrimidin-4-amine] | 79 | D (76-100% inhibition) | D (76-100% inhibition)
COCCCNc1nc(-c2nccn2C)nc2sc(-c3ccn(C(C)C)n3)c(C)c12 [Compound 36, 6-(1-Isopropyl-1H-pyrazol-3-yl)-N-(3-methoxypropyl)-5-methyl-2-(1-methyl-1H-imidazol-2-yl)thieno[2,3-d]pyrimidin-4-amine] | 268 | 0 (0% inhibition) | C (51-75% inhibition)
COc1cc(Nc2nc(-c3nccn3C)nc3sc(-c4ccn(C(C)C)n4)c(C)c23)ncn1 [Compound 66, 6-(1-Isopropyl-1H-pyrazol-3-yl)-N-(6-methoxypyrimidin-4-yl)-5-methyl-2-(1-methyl-1H-imidazol-2-yl)thieno[2,3-d]pyrimidin-4-amine] | 4 | B (26-50% inhibition) | 0 (0% inhibition)
CO[C@@H]1CC[C@H](Nc2nc(-c3nccn3C)nc3sc(-c4ccn(C(C)C)n4)c(-c4ccccc4)c23)C1 [Example 4, 6-(1-isopropyl-1H-pyrazol-3-yl)-N-((1S,3R)-3-methoxycyclopentyl)-2-(1-methyl-1H-imidazol-2-yl)-5-phenylthieno[2,3-d]pyrimidin-4-amine] | 5 | D (76-100% inhibition) | D (76-100% inhibition)
